Columns and labels:
Type in all cases: cell-based, white clover (Trifolium repense L.)
[1] = system: shoots of the white clover; experiment: Effects of BAP, IAA and NAA on the shoot propagation of the clover
Experimental: Furthermore, in order to promote mutation and cell division of shoots of the white clover, the shoots were treated with cold water of 5° C. for 20 seconds, which in turn were transferred to a solution of Ethyl Methane Sulfonate of 0.2 μg/L for 3 seconds. Then, the shoots were washed with sterile water. […] The incubation of the shoots was carried out under the conditions of temperature of 21° C. and luminous intensity of 500 lux.

[2] = system: cut segments of the white clover; experiment: Effects of Ethyl Methane Sulfonate on the mutation of the shoots; settings: for Color of leaves / Heliophilous / Mutation ratio (%) / Numbers of leaves / Numbers of stems / Shape of leaves: 3.0 sec
Excerpt: Two hundreds of wild-type white clovers, which were native in Korea, were harvested, wherein the respective clovers had three leaves and a stem of a length of about 7 cm.
All leaves were removed from the clovers. Then, the stems of the clovers were cut at a length of about 3˜4 cm, which are transferred to a conical flask and subjected to a solution of ethyl alcohol of 70% for 30 seconds to sterilize the stems. Next, the segments of stems were washed with sterile water, which in turn were transferred to a solution of ethyl alcohol of 70% for 15 minutes to sterilize surfaces of the stem segments. Continuously, the stem segments were washed with sterile water three times.
The sterilized segments of the white clovers were cut again at a length of 2˜3 mm in a clean bench, wherein each of the cut segments included growing point. The resulting cut segments of the white clover were treated with Ethyl Methane Sulfonate in order to induce mutation.
Referring to the Table 1, shoots were respectively treated with Ethyl Methane Sulfonate of 0.1˜0.3 μg/L for 3 seconds. As the result, when the shoots were treated with Ethyl Methane Sulfonate of 0.2 μg/L, the ratio, regarding the growth of four leaves from the stem, is highest.

[3] = system: shoots of the clover; experiment: Effects of the density of sucrose in the medium on the propagation and growth of shoots
Experimental: Meanwhile, sucrose of […] was added to the medium in order to reduce the callus formation and the transparency ratio during the cultivation of the shoots.

[4] = system: cultivated shoots of the clover; experiment: Effects of IAA/IBA and NAA on shoot growth and rooting of the cultivated shoots; settings: for Length of roots (cm) / Length of shoots (cm) / Numbers of roots/segments / Numbers of shoots/segments / Weight of shoots/segments: basic MS medium + SUCROSE 20 g/L;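 on Length of roots (cm): Auxin doses in mg/L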;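 on Length of shoots (cm): Auxin doses in mg/L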;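 on Numbers of roots/segments: Auxin doses in mg/L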;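 on Numbers of shoots/segments: Auxin doses in mg/L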;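 on Weight of shoots/segments (g): Auxin doses in mg/L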
Experimental: The cultivation was carried out under the conditions of acidity of pH 5.5, 22˜25° C. and luminous intensity of 800 lux.

[5] = medium with BAP of 1.0˜2.0 mg/L
[6] = Sucrose 10 mg/L, basic MS medium + BAP 2.0 mg/L + IAA 0.5 mg/L
[7] = Sucrose 15 mg/L, basic MS medium + BAP 2.0 mg/L + IAA 0.5 mg/L
[8] = Sucrose 20 mg/L, basic MS medium + BAP 2.0 mg/L + IAA 0.5 mg/L
[9] = Sucrose 25 mg/L, basic MS medium + BAP 2.0 mg/L + IAA 0.5 mg/L
[10] = Sucrose 30 g/L, basic MS medium + BAP 2.0 mg/L + IAA 0.5 mg/L

c1ccc(CNc2ncnc3nc[nH]c23)cc1 [BAP, 6-Benzylaminopurine]
incubation efficiency of the shoots ([1]; in proportion to the density of the BAP): enhanced
average number of the shoots [1, 5]: more than 2.7
transparency ratio [1, 5]: more than 42.3%

CCOS(C)(=O)=O [EMS, Ethyl Methane Sulfonate]
Color of leaves ([2]; EMS 0.1 μg/L): Light
Heliophilous ([2]; EMS 0.1 μg/L): 0.3c
Mutation ratio (%) ([2]; EMS 0.1 μg/L): 12c %
Numbers of leaves ([2]; EMS 0.1 μg/L): 4c
Numbers of stems ([2]; EMS 0.1 μg/L): 6c
Shape of leaves ([2]; EMS 0.1 μg/L): Heart
Color of leaves ([2]; EMS 0.2 μg/L): Light
Heliophilous ([2]; EMS 0.2 μg/L): 1.5a
Mutation ratio (%) ([2]; EMS 0.2 μg/L): 25a %
Numbers of leaves ([2]; EMS 0.2 μg/L): 4a
Numbers of stems ([2]; EMS 0.2 μg/L): 10b
Shape of leaves ([2]; EMS 0.2 μg/L): Heart
Color of leaves ([2]; EMS 0.3 μg/L): Light
Heliophilous ([2]; EMS 0.3 μg/L): 2.5b
Mutation ratio (%) ([2]; EMS 0.3 μg/L): 18b %
Numbers of leaves ([2]; EMS 0.3 μg/L): 4b
Numbers of stems ([2]; EMS 0.3 μg/L): 8b
Shape of leaves ([2]; EMS 0.3 μg/L): Heart
ratio regarding the growth of four leaves from the stem ([2]; Ethyl Methane Sulfonate of 0.2 μg/L for 3 seconds, among 0.1˜0.3 μg/L): highest

OC[C@H]1O[C@@](CO)(O[C@H]2O[C@H](CO)[C@@H](O)[C@H](O)[C@H]2O)[C@@H](O)[C@@H]1O [Sucrose, sucrose]
Length of shoots (cm) [3, 6]: 3.2 a cm
Numbers of shoots/segments [3, 6]: 3.2 a^a
Weight of shoots/segments (g) [3, 6]: 1.66 a g
transparency ratio (%) [3, 6]: 3.46 b %
Length of shoots (cm) [3, 7]: 4.1 a cm
Numbers of shoots/segments [3, 7]: 3.9 a
Weight of shoots/segments (g) [3, 7]: 2.13 ab g
transparency ratio (%) [3, 7]: 40.1 a %
Length of shoots (cm) [3, 8]: 4.8 a cm
Numbers of shoots/segments [3, 8]: 4.0 a
Weight of shoots/segments (g) [3, 8]: 2.17 ab g
transparency ratio (%) [3, 8]: 46.7 a %
Callus formation [3, 9]: ++
Length of shoots (cm) [3, 9]: 3.9 a cm
Numbers of shoots/segments [3, 9]: 3.6 a
Weight of shoots/segments (g) [3, 9]: 2.43 ab g
transparency ratio (%) [3, 9]: 42.4 a %
Callus formation [3, 10]: +++
Length of shoots (cm) [3, 10]: 4.4 a cm
Numbers of shoots/segments [3, 10]: 3.4 a
Weight of shoots/segments (g) [3, 10]: 2.73 a g
transparency ratio (%) [3, 10]: 50.7 a %
Callus formation ([3]; sucrose of 15˜20 g/L in the medium): callus was generated only

O=C(O)Cc1cccc2ccccc12 [NAA, α-Naphthaleneacetic Acid]
Length of roots (cm) ([4]; NAA 0.5): 4.8 a cm
Length of shoots (cm) ([4]; NAA 0.5): 4.6 a cm
Numbers of roots/segments ([4]; NAA 0.5): 3.2 a
Numbers of shoots/segments ([4]; NAA 0.5): 1.0 a
Weight of shoots/segments ([4]; NAA 0.5): 3.92 g
Length of roots (cm) ([4]; NAA 1.0): 3.6 ab cm
Length of shoots (cm) ([4]; NAA 1.0): 4.8 a cm
Numbers of roots/segments ([4]; NAA 1.0): 2.5 ab
Numbers of shoots/segments ([4]; NAA 1.0): 1.1 a
Weight of shoots/segments ([4]; NAA 1.0): 4.21 g
Length of roots (cm) ([4]; NAA 2.0): 3.4 b cm
Length of shoots (cm) ([4]; NAA 2.0): 4.8 a cm
Numbers of roots/segments ([4]; NAA 2.0): 1.9 b
Weight of shoots/segments ([4]; NAA 2.0): 3.42 g
Length of roots (cm) ([4]; NAA 5.0): 3.2 b cm
Length of shoots (cm) ([4]; NAA 5.0): 4.2 a cm
Numbers of roots/segments ([4]; NAA 5.0): 1.6 b
Numbers of shoots/segments ([4]; NAA 5.0): 1.0 a
Weight of shoots/segments ([4]; NAA 5.0): 3.72 g
rooting of the shoots ([4]; NAA of 0.5˜1.0 mg/L added to the basic MS medium): induced well

O=C(O)CCCc1c[nH]c2ccccc12 [IBA]
Length of roots (cm) ([4]; IBA 0.5): 4.9 a cm
Length of shoots (cm) ([4]; IBA 0.5): 5.1 a cm
Numbers of roots/segments ([4]; IBA 0.5): 2.2 ab
Numbers of shoots/segments ([4]; IBA 0.5): 1.4 a
Weight of shoots/segments ([4]; IBA 0.5): 3.4 g
Length of roots (cm) ([4]; IBA 1.5): 4.6 a cm
Length of shoots (cm) ([4]; IBA 1.5): 5.3 a cm
Numbers of roots/segments ([4]; IBA 1.5): 2.8 ab
Numbers of shoots/segments ([4]; IBA 1.5): 1.2 a
Weight of shoots/segments ([4]; IBA 1.5): 4.66 g
Length of roots (cm) ([4]; IBA 2.0): 5.1 a cm
Length of shoots (cm) ([4]; IBA 2.0): 5.1 a cm
Numbers of roots/segments ([4]; IBA 2.0): 3.4 a
Numbers of shoots/segments ([4]; IBA 2.0): 1.0 a
Weight of shoots/segments ([4]; IBA 2.0): 4.21 g
Length of roots (cm) ([4]; IBA 5.0): 3.1 b cm
Length of shoots (cm) ([4]; IBA 5.0): 4.7 a cm
Numbers of roots/segments ([4]; IBA 5.0): 1.2 b
Numbers of shoots/segments ([4]; IBA 5.0): 1
Weight of shoots/segments ([4]; IBA 5.0): 3.33 g
rooting of the shoots ([4]; IBA of 0.5 mg/L added to the basic MS medium): induced well

— patent US7230166B2, “Variety of four-leaf clover and a method for breeding the same” (priority 2002, dated 2007)
